According to publication PMC9841533, “Microtubule-Stabilizing 1,2,4-Triazolo[1,5-a]pyrimidines as Candidate Therapeutics for Neurodegenerative Disease: Matched Molecular Pair Analyses and Computational Studies Reveal New Structure–Activity Insights” (Journal of Medicinal Chemistry, 2022):

Assays:
[1] = test system: AcTub levels in OA-treated primary mouse cortical neurons; experiment: Okadaic acid (OA) assay, AcTub ELISA in primary mouse cortical neurons; format: cell-based; details: OA 15 nM, 8 h, compound 1 and 10 μM
Experimental: To further evaluate the activity of Class I alkyne derivatives and hybrid compounds, several compounds were also assessed for their ability to compensate for MT deficits in primary neuron cultures that were treated with the phosphatase inhibitor, okadaic acid (OA). As previously described,[11] treatment of rodent neurons with OA results in tau hyperphosphorylation and MT collapse that presumably results, at least in part, from tau disengagement from MTs. Co-treatment of neurons with Class I TPDs, such as 1, along with OA prevents this MT collapse, with a resulting normalization of MT structure and neuronal processes which can be observed upon visual inspection of the neurons or through an assessment of neuronal AcTub levels, while Class II TPDs are generally unable to provide meaningful compensation of MT deficits, especially when tested at higher (i.e., 10 μM) compound concentration.[11],[12]
Figure 4 ELISA determination of AcTub levels in homogenates from primary rat cortical neurons treated with either vehicle, or OA (15 nM) in the presence of vehicle or TPD 1, 8, 9 (A); and primary mouse cortical neurons treated with vehicle, or OA (15 nM) in the presence of vehicle or TPD 1, 24, 45, 46, 53, 54 (B). Error bars represent SEM, with ***, p < 0.001 relative to vehicle treatment in the absence of OA as determined by one-way ANOVA.
Compound-induced changes in acetylated-tubulin and α-tubulin in QBI293 cells or primary mouse or rat neurons were as previously described.[11],[12] For compound testing, QBI293 cells were plated at a density of 2 × 10^5 cells/well in 12-well plates. The plated cells were incubated overnight, after which the medium was aspirated and fresh medium containing vehicle (0.25–0.3% DMSO) or test compound was added. Test compounds were prepared as 4–20 mM stock solutions in 100% DMSO, and these were diluted in culture medium prior to addition to the QBI293 cells. After 4 h incubation, whole-cell extracts were prepared from the QBI293 cells as described[11] and the supernatant fraction from each sample was assessed for protein content by bicinchoninic acid (BCA) assay. The amount of acetyl-tubulin (AcTub) and α-tubulin (αTub) within the cell extract samples was quantified using specific enzyme-linked immunosorbent assays (ELISA), as previously described.[11] Acetyl-tubulin levels were determined in a similar manner in rat or mouse cortical neuron cultures in which embryonic dissociated cortical neurons were plated at 3 × 10^5 cells/well in poly-D-lysine-coated 12-well plates, essentially as previously described.[11] The neurons were allowed to grow for 10 days before they were treated for 8 h with 15 nM okadaic acid in the presence or absence of test compound prepared as described above, or vehicle (0.25% DMSO). Culture homogenates were prepared for the determination of AcTub levels by ELISA as previously described.[11]
VehicleVehicleVehicleVehicle25 (1 µM)
Figure S2. Assessment of AcTub levels in primary mouse cortical neurons treated with vehicle,
(1 picture or pasted object on this page, not shown here)

[2] = Plasma pharmacokinetics in CD-1 mice; format: in vivo, mouse; details: i.v. 5 mg/kg
Experimental: Studies to determine the pharmacokinetic properties of compounds 53 and 60 were conducted at Touchstone Biosciences (Plymouth Meeting, PA). For the determination of plasma pharmacokinetics, three male CD-1 mice (2–3 months of age) were injected i.v. (tail vein) with test compound at a dose of 5 mg/kg in a solution of 10% DMSO, 40% polyethylene glycol, and 50% water, and another three male CD-1 mice received oral gavage dosing of 60 formulated as above at a dose of 20 mg/kg. Blood samples were collected from the saphenous or submandibular veins at multiple time points after dosing and collected in Greiner MiniCollect K2EDTA tubes. Compound levels in plasma were determined by LC-MS/MS, using protocols similar to those previously described.[16],[22]

[3] = Brain-to-plasma ratio in mice; format: in vivo; details: mouse, ip, 1 h post-administration, i.p. 1.5 mg/kg, read-out: brain-to-plasma ratio (B/P)

C[C@@H](Nc1c(-c2c(F)cc(C#CCCO)cc2F)c(Cl)nc2ncnn12)C(C)(C)C [Compound 53, (R)-4-(4-(5-Chloro-7-((3,3-dimethylbutan-2-yl)amino)-[1,2,4]triazolo[1,5-a]pyrimidin-6-yl)-3,5-difluorophenyl)but-3-yn-1-ol]
prevention/correction of OA-induced MT collapse (AcTub levels) [1]: can prevent the OA-induced MT collapse | half-life (T1/2) [2]: relatively prolonged half-life | Kp at 1 h [3]: ~0.5
